Experimental data reported in ChEMBL document CHEMBL3885881, “DrugMatrix”.

Species on record: Rattus norvegicus
Experiment: DrugMatrix - Regimen: Daily Repeat
Type: toxicity, organism-based, Sprague-Dawley
Parameters: regimen Daily Repeat, gender Male, age 6-8 weeks
Conditions: in vivo, po, 1100 mg/kg, route oral GAVAGE, dose level High, vehicle .5 % CMC; for ABSOLUTE BASOPHIL / ABSOLUTE EOSINOPHIL / ABSOLUTE LYMPHOCYTE / ABSOLUTE MONOCYTE / ABSOLUTE SEGMENTED NEUTROPHIL / BASOPHIL / EOSINOPHIL / ERYTHROCYTE COUNT / HEMATOCRIT / HEMOGLOBIN / LEUKOCYTE COUNT / LYMPHOCYTE / MEAN CORPUSCULAR HEMOGLOBIN / MEAN CORPUSCULAR HEMOGLOBIN CONCENTRATION / MEAN CORPUSCULAR VOLUME / MONOCYTE / NEUTROPHIL / NUCLEATED RED BLOOD CELLS / PLATELET COUNT: tissue Blood; for ALANINE AMINOTRANSFERASE / ALBUMIN / ALKALINE PHOSPHATASE / ASPARTATE AMINOTRANSFERASE / BLOOD UREA NITROGEN / CARBON DIOXIDE / CHLORIDE / CHOLESTEROL / CREATINE PHOSPHOKINASE / CREATININE / GLUCOSE / LACTATE DEHYDROGENASE / LIPASE / PHOSPHORUS / POTASSIUM / SODIUM / TOTAL BILIRUBIN / URIC ACID: tissue Plasma

COc1cc(NS(=O)(=O)c2ccc(N)cc2)nc(OC)n1 [SULFADIMETHOXINE]
ABSOLUTE BASOPHIL (72 h, time 3 day): 0 CELLS/uL
ABSOLUTE EOSINOPHIL (72 h, time 3 day): 176 CELLS/uL
ABSOLUTE LYMPHOCYTE (72 h, time 3 day): 8678 CELLS/uL
ABSOLUTE MONOCYTE (72 h, time 3 day): 307.33 CELLS/uL
ABSOLUTE SEGMENTED NEUTROPHIL (72 h, time 3 day): 1105.33 CELLS/uL
BASOPHIL (72 h, time 3 day): 0%
EOSINOPHIL (72 h, time 3 day): 1.67%
ERYTHROCYTE COUNT (72 h, time 3 day): 5.56 x10E6/uL
HEMATOCRIT (72 h, time 3 day): 35.03%
HEMOGLOBIN (72 h, time 3 day): 13.43 G/DL
LEUKOCYTE COUNT (72 h, time 3 day): 10.27 x10E3/uL
LYMPHOCYTE (72 h, time 3 day): 84.67%
MEAN CORPUSCULAR HEMOGLOBIN (72 h, time 3 day): 24.13 pg
MEAN CORPUSCULAR HEMOGLOBIN CONCENTRATION (72 h, time 3 day): 38.37 G/DL
MEAN CORPUSCULAR VOLUME (72 h, time 3 day): 62.93 fL
MONOCYTE (72 h, time 3 day): 3%
NEUTROPHIL (72 h, time 3 day): 10.67%
NUCLEATED RED BLOOD CELLS (72 h, time 3 day): 0 /100WBC
PLATELET COUNT (72 h, time 3 day): 1279 x10E3/uL
ALANINE AMINOTRANSFERASE (72 h, time 3 day): 62.67 u/L
ALBUMIN (72 h, time 3 day): 4.6 G/DL
ALKALINE PHOSPHATASE (72 h, time 3 day): 393.67 u/L
ASPARTATE AMINOTRANSFERASE (72 h, time 3 day): 75.67 u/L
BLOOD UREA NITROGEN (72 h, time 3 day): 18 mg/dL
CARBON DIOXIDE (72 h, time 3 day): 27.67 mmol/L
CHLORIDE (72 h, time 3 day): 102.67 MEQ/L
CHOLESTEROL (72 h, time 3 day): 67.67 mg/dL
CREATINE PHOSPHOKINASE (72 h, time 3 day): 189.67 u/L
CREATININE (72 h, time 3 day): 0.32 mg/dL
GLUCOSE (72 h, time 3 day): 153.33 mg/dL
LACTATE DEHYDROGENASE (72 h, time 3 day): 129.33 u/L
LIPASE (72 h, time 3 day): 9.33 u/L
PHOSPHORUS (72 h, time 3 day): 12.17 mg/dL
POTASSIUM (72 h, time 3 day): 6.03 MEQ/L
SODIUM (72 h, time 3 day): 145.53 MEQ/L
TOTAL BILIRUBIN (72 h, time 3 day): 0.17 mg/dL
URIC ACID (72 h, time 3 day): 1.37 mg/dL
ABSOLUTE BASOPHIL (120 h, time 5 day): 0 CELLS/uL
ABSOLUTE EOSINOPHIL (120 h, time 5 day): 186.33 CELLS/uL
ABSOLUTE LYMPHOCYTE (120 h, time 5 day): 11316.33 CELLS/uL
ABSOLUTE MONOCYTE (120 h, time 5 day): 266.33 CELLS/uL
ABSOLUTE SEGMENTED NEUTROPHIL (120 h, time 5 day): 1431 CELLS/uL
BASOPHIL (120 h, time 5 day): 0%
EOSINOPHIL (120 h, time 5 day): 1.33%
ERYTHROCYTE COUNT (120 h, time 5 day): 5.62 x10E6/uL
HEMATOCRIT (120 h, time 5 day): 35.53%
HEMOGLOBIN (120 h, time 5 day): 13.53 G/DL
LEUKOCYTE COUNT (120 h, time 5 day): 13.2 x10E3/uL
LYMPHOCYTE (120 h, time 5 day): 86%
MEAN CORPUSCULAR HEMOGLOBIN (120 h, time 5 day): 24.1 pg
MEAN CORPUSCULAR HEMOGLOBIN CONCENTRATION (120 h, time 5 day): 38.1 G/DL
MEAN CORPUSCULAR VOLUME (120 h, time 5 day): 63.17 fL
MONOCYTE (120 h, time 5 day): 2%
NEUTROPHIL (120 h, time 5 day): 10.67%
NUCLEATED RED BLOOD CELLS (120 h, time 5 day): 0 /100WBC
PLATELET COUNT (120 h, time 5 day): 1313.67 x10E3/uL
ALANINE AMINOTRANSFERASE (120 h, time 5 day): 48.67 u/L
ALBUMIN (120 h, time 5 day): 4.57 G/DL
ALKALINE PHOSPHATASE (120 h, time 5 day): 294.67 u/L
ASPARTATE AMINOTRANSFERASE (120 h, time 5 day): 97 u/L
BLOOD UREA NITROGEN (120 h, time 5 day): 21.67 mg/dL
CARBON DIOXIDE (120 h, time 5 day): 25.33 mmol/L
CHLORIDE (120 h, time 5 day): 102.33 MEQ/L
CHOLESTEROL (120 h, time 5 day): 65 mg/dL
CREATINE PHOSPHOKINASE (120 h, time 5 day): 679 u/L
CREATININE (120 h, time 5 day): 0.26 mg/dL
GLUCOSE (120 h, time 5 day): 151.67 mg/dL
LACTATE DEHYDROGENASE (120 h, time 5 day): 445 u/L
LIPASE (120 h, time 5 day): 8.67 u/L
PHOSPHORUS (120 h, time 5 day): 11.87 mg/dL
POTASSIUM (120 h, time 5 day): 5.23 MEQ/L
SODIUM (120 h, time 5 day): 144.1 MEQ/L
TOTAL BILIRUBIN (120 h, time 5 day): 0.1 mg/dL
URIC ACID (120 h, time 5 day): 1.4 mg/dL
